Measurements published in article PMC9257522, “Machine Learning for Discovery of New ADORA Modulators” (Frontiers in Pharmacology, 2022).
“Also recorded” adds a separate entry of the source. Structures can show the parent of a compound that is named as a salt. Where two headings read alike, the source gives them in different places.

Assays:
A2BAR = system: T1, A2BAR; conditions: background property of the receptor, no reference given, cited from earlier work
T1 construct: expressed in transfected cells; host or cells: HEK293

A3AR = conditions: background property of the receptor, no reference given; listed as ADO; cited from earlier work
human A1AR [1] = system: T2, human A1AR; assay: A1AR cAMP assay, HEK293 A1AR Nomad cell line (Innoprot), agonist mode; assay type: cell-based; conditions: compounds at 10 µM, normalized to 10 µM NECA (100%) and vehicle DMSO (0%)
T2 construct: host or cells: HEK293 A1AR Nomad cell line
Source text: For screening of the initial compounds predicted by machine learning models to activate A1AR receptor, we used the HEK293 A1AR Nomad cell line, which consists of HEK293 cells stably expressing human A1AR with no tag. This cell line has been designed to assay compounds or analyze their capability to modulate the A1AR. When the agonist binds to A1AR in this engineered cell line a Go protein is activated, which in turn, triggers a cellular response mediated by cAMP inhibition. This cellular response can be measured by quantifying the increase in fluorescence intensity and its cellular distribution. An agonist assay was performed for 29 compounds (predicted to be active by the machine learning model) in the human recombinant HEK293 A1AR Nomad cell line using a fluorescence-based assay. An agonist effect of the compounds was measured by quantifying the changes in the fluorescence emission cAMP Nomad biosensor, this elevation of fluorescence was analyzed using a plate reader Synergy 2 (Biotek, Winooski, VT). The error bars represent the standard deviation among the three replicate wells. The 29 compounds were tested at 10 μM using nonselective AR agonist adenosine-5′-N-ethyluronamide (NECA) at 10 μM as a reference.

human A1AR [2] = system: T2, human A1AR; assay: Radioligand displacement binding, [3H]DPCPX, HEK293 membranes; conditions: mean ± standard error, three independent experiments
Protocol: (§1) HEK293 cells stably expressing the human A1AR, A2AAR, A3AR were cultured in DMEM supplemented with 10% fetal bovine serum, 100 Units/ml penicillin, 100 µg/ml streptomycin, and 2 µmol/ml glutamine. To prepare cell membranes, cells were detached from culture plates by scraping into cold PBS and centrifuged at 250 g for 5 min. The pellets were resuspended in ice-cold PBS buffer (pH 7.4) and then homogenized. After homogenization and suspension, cells were centrifuged at 1,000 g for 10 min, and the pellet was discarded. The suspension was then re-centrifuged at 20,000 g for 60 min at 4°C. […] The aliquots of membrane preparations were stored at −80°C until the binding experiments. For displacement binding assays, membrane preparations (20 µg proteins/tube) were incubated at 25°C for 60 min with a final concentration of [^3H]DPCPX (0.5 nM), [^3H]ZM241385 (1.0 nM), […] [^125I]I-AB-MECA (0.1 nM) for A1AR, A2AAR, A3AR, respectively, in a mixture containing 50 µl of increasing concentrations of a test ligand in a total assay volume of 200 µl of 50 mM Tris HCl, pH 7.4, containing 10 mM MgCl2. Nonspecific binding was determined using 100 µM of XAC. The reaction was terminated by filtration with GF/B filters using a Brandel (Gaithersburg, MD) 24-channel harvester. Filters were placed in scintillation vials containing 5 ml of Hydrofluor scintillation buffer (National Diagnostics, Atlanta, GA) and counted using a Tricarb 2810TR liquid scintillation counter (PerkinElmer, Waltham, MA).

human A2AAR [3] = molecular target: T3, human A2AAR (Homo sapiens, UniProt P29274); assay: Radioligand displacement binding, [3H]ZM241385, HEK293 membranes; conditions: mean ± standard error, three independent experiments; for Ki: read-out: Ki, A2A ([3H]ZM241385)
T3 construct: expressed in transfected cells; host or cells: HEK293
T3 sequence (P29274 whole entry): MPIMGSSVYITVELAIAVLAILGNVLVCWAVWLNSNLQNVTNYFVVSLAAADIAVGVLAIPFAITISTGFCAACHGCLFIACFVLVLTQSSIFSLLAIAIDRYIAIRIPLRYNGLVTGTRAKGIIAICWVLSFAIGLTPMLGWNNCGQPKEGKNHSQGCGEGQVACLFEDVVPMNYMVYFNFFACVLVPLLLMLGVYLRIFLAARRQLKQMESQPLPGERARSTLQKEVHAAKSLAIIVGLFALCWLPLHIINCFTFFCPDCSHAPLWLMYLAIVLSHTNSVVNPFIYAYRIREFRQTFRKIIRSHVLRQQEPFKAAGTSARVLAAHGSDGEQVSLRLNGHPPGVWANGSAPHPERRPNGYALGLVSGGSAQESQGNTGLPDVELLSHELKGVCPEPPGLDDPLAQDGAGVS
Protocol: as §1

human A2BAR = assay: Radioligand displacement binding, [3H]DPCPX
human A3AR [4] = molecular target: T4, human A3AR (Homo sapiens, UniProt P0DMS8); assay: Radioligand displacement binding, [125I]I-AB-MECA, HEK293 membranes; conditions: for Ki, A3 ([125I]I-AB-MECA) / Ki: mean ± standard error, three independent experiments; for Ki: read-out: Ki, A3 ([125I]I-AB-MECA)
T4 sequence (P0DMS8 1-318): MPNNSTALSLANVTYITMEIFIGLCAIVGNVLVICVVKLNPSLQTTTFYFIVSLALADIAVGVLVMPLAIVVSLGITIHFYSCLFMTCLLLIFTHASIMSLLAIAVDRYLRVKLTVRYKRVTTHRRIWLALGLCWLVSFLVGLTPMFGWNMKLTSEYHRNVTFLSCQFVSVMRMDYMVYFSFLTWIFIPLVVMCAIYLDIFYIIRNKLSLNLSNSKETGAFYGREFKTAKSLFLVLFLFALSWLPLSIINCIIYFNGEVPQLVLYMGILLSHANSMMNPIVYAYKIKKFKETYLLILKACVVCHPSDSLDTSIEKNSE
Protocol: as §1

A1AR [5] = system: T5, A1AR; assay: cAMP assay in AR-expressing HEK293 cells (ALPHAScreen), A1AR; assay type: cell-based, human; conditions: A1AR-expressing HEK cells; cAMP inhibition, Cl-ENBA reference full agonist
T5 construct: expressed in transfected cells; host or cells: HEK293
Protocol: (§2) HEK293 cells were grown in 96-well plates in DMEM supplemented with 10% fetal bovine serum, 100 Units/ml penicillin, 100 µg/ml streptomycin, and 2 µmol/ml glutamine. […] For A1AR and A3AR, after incubation with agonists for 20 min, forskolin (10 µM) was added and the mixture incubated for an additional 15 min. The reaction was terminated upon removal of the supernatant and addition of 100 µl Tween-20 (0.3%). Intracellular cAMP levels were measured with an ALPHAScreen cAMP assay kit as instructed by the manufacturer (PerkinElmer).

human A2AAR [6] = molecular target: T3, human A2AAR; assay: cAMP assay in AR-expressing HEK293 cells (ALPHAScreen), A2AAR; assay type: cell-based
Protocol: as §2

human A3AR [7] = molecular target: T4, human A3AR; assay: cAMP assay in AR-expressing HEK293 cells (ALPHAScreen), A3AR; assay type: cell-based; conditions: for cAMP, A3AR agonist activity: A3AR-expressing cells, MRS5698 reference full agonist
Protocol: as §2

A1AR [8] = system: T6, A1AR; assay: A1AR-bla U2OS agonist screen (beta-arrestin/TEV, beta-lactamase reporter; Thermo Fisher); assay type: cell-based
T6 construct: host or cells: A1AR-bla U2OS
Protocol: A1AR-bla U2OS cells are thawed and resuspended in Assay Media (Freestyle media) to a concentration of 312,500 cells/ml. 32 μl of cell suspension (10,000 cells) was added to each well of a 384-well TC-Treated assay plate. Cells in Assay Media were incubated for 16–24 h in the plate at 37°C/5% CO2 in a humidified incubator. 4 μl aliquots of a 10X serial dilution of NECA (control agonist starting concentration, 500 nM) or compounds were added to appropriate wells of the plate. 4 μl of Assay Media was added to all wells to bring the final assay volume to 40 μl. The plate was incubated for 5 h at 37°C/5% CO2 in a humidified incubator. 8 μl of 1 μM substrate + Solution D Loading Solution was added to each well and the plate was incubated for 2 h at room temperature. The plate was read on a fluorescence plate reader.
This parental cell line stably expresses a beta‐arrestin/TEV protease fusion protein and the beta‐lactamase reporter gene under the control of a UAS response element. […] We also used a secondary assay PathHunter® β-Arrestin assay, which monitors the activation of A1AR in a homogenous, non-imaging assay format using a technology developed by DiscoverX called Enzyme Fragment Complementation (EFC) with β-galactosidase (β-Gal) as the functional reporter.

A2AAR = conditions: read-out: Ki, A2AAR; A2AAR antagonist; quoted without method, no reference given; cited from earlier work

**Q.** Which “Adenosine affinity, A2BAR” value (A2BAR) does the source give for `Nc1ncnc2c1ncn2[C@@H]1O[C@H](CO)[C@@H](O)[C@H]1O` [Adenosine] here?
**A.** Low affinity

**Q.** What about the “Adenosine affinity, A2BAR” value (A2BAR; listed as ADO) of the same molecule?
**A.** relatively lower affinity

**Q.** And the “Adenosine affinity, A3AR” value (A3AR)?
**A.** relatively lower affinity

**Q.** For `Cc1ccc(S(=O)(=O)/C=C/C#N)cc1` [BAY 11-7082, (E)-3-(4-methylphenylsulfonyl)-2-propenenitrile], which “normalized activity with respect to the positive control” value (“normalized activity” for short) (human A1AR [1]) is on record?
**A.** 95.74%

**Q.** Which “normalized activity” value (human A1AR [1]) does the source give for `Cc1nc(-c2ccc(OCC(C)C)c(C#N)c2)sc1C(=O)O` [Febuxostat] here?
**A.** 94.53%

**Q.** What about the “Inhibition of specific binding, % inhibition at 100 µM, A1 ([3H]DPCPX)” value (human A1AR [2]) of the same molecule?
**A.** 29.8 ± 5.2%

**Q.** And the “Ki, A2A ([3H]ZM241385)” value (human A2AAR [3])?
**A.** in the µM range

**Q.** And the Ki (human A2AAR [3])?
**A.** 22.9 ± 4.3 µM

**Q.** And the “Inhibition of specific binding, % inhibition at 100 µM, A2B ([3H]DPCPX)” value (human A2BAR)?
**A.** <10%

**Q.** And the “Ki, A3 ([125I]I-AB-MECA)” value (human A3AR [4])?
**A.** in the µM range

**Q.** What about the Ki (human A3AR [4]) of the same molecule?
**A.** 67.3 ± 45.7 µM

**Q.** What about the “cAMP, A1AR agonist activity” value (A1AR [5]) of the same molecule?
**A.** Not active

**Q.** And the “cAMP, A2AAR activity (stimulation of cAMP)” value (“cAMP, A2AAR activity” below) (human A2AAR [6]; A2AAR-expressing HEK293 cells)?
**A.** Not active

**Q.** What about the “cAMP, A2AAR activity” value (human A2AAR [6]; A2AAR-expressing HEK293 cells, listed as febuxostat) of the same molecule?
**A.** not

**Q.** Which “normalized activity” value (human A1AR [1]) does the source give for `Fc1ccc([C@@H]2CCNC[C@H]2COc2ccc3c(c2)OCO3)cc1` [Paroxetine, Paroxetine Hydrochloride] here?
**A.** 68.0%

**Q.** What about the “Inhibition of specific binding, % inhibition at 100 µM, A1 ([3H]DPCPX)” value (human A1AR [2]) of the same molecule?
**A.** 9.1 ± 3.9%

**Q.** What about the “Ki, A2A ([3H]ZM241385)” value (human A2AAR [3]) of the same molecule?
**A.** in the µM range

**Q.** And the Ki (human A2AAR [3])?
**A.** 40.4 ± 9.8 µM

**Q.** What about the Kd (human A3AR [4]; as worded in the Discussion) of the same molecule?
**A.** 14.5 ± 9.7 µM

**Q.** And the “Ki, A3 ([125I]I-AB-MECA)” value (human A3AR [4])?
**A.** in the µM range

**Q.** And the Ki (human A3AR [4])?
**A.** 14.5 ± 9.7 µM

**Q.** What about the “cAMP, A1AR agonist activity” value (A1AR [5]) of the same molecule?
**A.** Not active

**Q.** What about the “cAMP, A2AAR activity” value (human A2AAR [6]; A2AAR-expressing HEK293 cells) of the same molecule?
**A.** weak activation; also recorded: Active

**Q.** What about the Emax (human A2AAR [6]; A2AAR-expressing HEK293 cells, reference full agonist = 100% stimulation) of the same molecule?
**A.** 69%

**Q.** What about the EC50 (human A2AAR [6]; HEK293 cells expressing human A2AAR, absence of antagonist, read-out: EC50, stimulation of cAMP, A2AAR) of the same molecule?
**A.** 14 µM

**Q.** And the “agonist activity at the human A3AR at 100 µM” value (human A3AR [7]; 100 µM)?
**A.** did not show any agonist activity

**Q.** And the “cAMP, A3AR agonist activity” value (human A3AR [7])?
**A.** no activation; also recorded: Not active

**Q.** And the “cAMP, A3AR agonist activity” value (human A3AR [7]; listed as paroxetine)?
**A.** Lack of agonist effect

**Q.** And the “activation of A1AR, A1AR-bla U2OS cells” value (A1AR [8])?
**A.** no activation

**Q.** For `CCN(CC)CCOc1ccc2c(c1)C(=O)c1cc(OCCN(CC)CC)ccc1-2` [Tilorone Hydrochloride], which “normalized activity” value (human A1AR [1]) is on record?
**A.** 55.9%

**Q.** For `CCn1c(=O)c2c(nc(/C=C/c3ccc(OC)c(OC)c3)n2C)n(CC)c1=O` [istradefylline, Istradefylline], which Ki (A2AAR) is on record?
**A.** 0.0022 µM
